Source: patent publication US20240158446A1, “CYCLIC COMPOUND HAVING SELECTIVE INHIBITORY ACTION ON KRAS OVER HRAS AND NRAS” (CHUGAI SEIYAKU KABUSHIKI KAISHA, priority 2021, published 2024)
Where a SMILES comes first, the peptide text is derived from it. Bridges are numbered along the chain shown (N, C = ends). [ ]: non-standard residue; d: D form. The star is where a group is joined. hPhe(3-Cl-4-CF3) = N[C@@H](CCc1ccc(C(F)(F)F)c(Cl)c1)C(=O)O; NEtPhe(4-Me) = CCN[C@@H](Cc1ccc(C)cc1)C(=O)O; NMeAbu(4,4,4-F3) = CN[C@@H](CC(F)(F)F)C(=O)O; NMePhe(4-Me) = CN[C@@H](Cc1ccc(C)cc1)C(=O)O; NMeGly(cPent) = CN[C@H](C(=O)O)C1CCCC1; NMeD = CN[C@@H](CC(=O)O)C(=O)O; NMeL = CN[C@@H](CC(C)C)C(=O)O; NMeS = CN[C@@H](CO)C(=O)O; Morpholide = C1CN(*)CCO1; NMeA = CN[C@@H](C)C(=O)O; Ac5c = NC1(C(=O)O)CCCC1; NEtG = CCNCC(=O)O; Sar = CNCC(=O)O

Assays:
[1] = target: GDP-bound KRAS wild-type protein (Homo sapiens, UniProt P01116); test: Binding to KRAS by surface plasmon resonance (SPR), Single Cycle Kinetics; conditions: SPR Single Cycle Kinetics, GDP-bound KRAS wild-type protein, 1:1 binding model; read-out: KRAS KD
[2] = target: GDP-bound NRAS wild-type protein (Homo sapiens, UniProt P01111); test: Binding to NRAS by surface plasmon resonance (SPR), Single Cycle Kinetics; conditions: SPR, GDP-bound NRAS wild-type protein vs GDP-bound KRAS wild-type protein
[3] = target: GDP-bound HRAS wild-type protein (Homo sapiens, UniProt P01112); test: Binding to HRAS by surface plasmon resonance (SPR), Single Cycle Kinetics; conditions: SPR, GDP-bound HRAS wild-type protein vs GDP-bound KRAS wild-type protein
Sequence of GDP-bound HRAS wild-type protein (P01112 whole entry): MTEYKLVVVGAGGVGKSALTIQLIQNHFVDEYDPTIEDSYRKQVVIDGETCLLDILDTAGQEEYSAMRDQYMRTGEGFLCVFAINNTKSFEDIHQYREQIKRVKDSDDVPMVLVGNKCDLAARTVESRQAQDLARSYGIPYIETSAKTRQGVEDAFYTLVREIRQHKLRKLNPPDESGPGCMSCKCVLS

Sequence of GDP-bound NRAS wild-type protein (P01111 whole entry): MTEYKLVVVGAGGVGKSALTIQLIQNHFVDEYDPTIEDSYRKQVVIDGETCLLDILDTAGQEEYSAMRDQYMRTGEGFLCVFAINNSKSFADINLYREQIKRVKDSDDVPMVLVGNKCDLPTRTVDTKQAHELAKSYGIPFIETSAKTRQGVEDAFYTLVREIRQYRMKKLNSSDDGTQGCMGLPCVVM
Sequence of GDP-bound KRAS wild-type protein (P01116 whole entry): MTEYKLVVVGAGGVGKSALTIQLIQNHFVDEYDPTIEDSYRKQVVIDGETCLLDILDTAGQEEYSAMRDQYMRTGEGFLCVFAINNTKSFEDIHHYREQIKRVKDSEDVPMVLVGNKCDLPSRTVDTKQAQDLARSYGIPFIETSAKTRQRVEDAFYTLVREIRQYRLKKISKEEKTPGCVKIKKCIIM

With `CC[C@H](C)[C@@H]1NC(=O)[C@H](CC(C)C)N(C)C(=O)C[C@@H](C(=O)N2CCOCC2)N(C)C(=O)[C@H](C2CCCC2)N(C)C(=O)C2(CCCC2)NC(=O)[C@@H]2CCCN2C(=O)[C@H](CCc2ccc(C(F)(F)F)c(Cl)c2)NC(=O)CN(CC)C(=O)[C@H](Cc2ccc(C)cc2)N(C)C(=O)CN(CC)C(=O)CN(C)C1=O` [PP0029] ([NMeL]I[Sar][NEtG][NMePhe(4-Me)][NEtG][hPhe(3-Cl-4-CF3)]P[Ac5c][NMeGly(cPent)][NMeD]-Morpholide; lactam N-11) the Kd [1] was 7 nM, the “NRAS/KRAS (ratio of KD value for NRAS to KD value for KRAS)” value [2] was “C (A compound having a KD ratio of 0.1 or more and less than 3 is denoted as C)” and the “HRAS/KRAS (ratio of KD value for HRAS to KD value for KRAS)” value [3] was “C (A compound having a KD ratio of 0.1 or more and less than 3 is denoted as C)”.

With `CC[C@H](C)[C@@H]1NC(=O)[C@H](CC(C)C)N(C)C(=O)C[C@@H](C(=O)N2CCOCC2)N(C)C(=O)[C@H](C2CCCC2)N(C)C(=O)C2(CCCC2)NC(=O)[C@@H]2CCCN2C(=O)[C@H](CCc2ccc(C(F)(F)F)c(Cl)c2)NC(=O)CN(CC)C(=O)[C@H](Cc2ccc(C)cc2)N(CC)C(=O)CN(CC)C(=O)CN(C)C1=O` [PP0030] ([NMeL]I[Sar][NEtG][NEtPhe(4-Me)][NEtG][hPhe(3-Cl-4-CF3)]P[Ac5c][NMeGly(cPent)][NMeD]-Morpholide; lactam N-11) the Kd [1] was 7.7 nM, the “NRAS/KRAS (ratio of KD value for NRAS to KD value for KRAS)” value [2] was “C (A compound having a KD ratio of 0.1 or more and less than 3 is denoted as C)” and the “HRAS/KRAS (ratio of KD value for HRAS to KD value for KRAS)” value [3] was “C (A compound having a KD ratio of 0.1 or more and less than 3 is denoted as C)”.

`CC[C@H](C)[C@@H]1NC(=O)[C@H](C)N(C)C(=O)C[C@@H](C(=O)N2CCOCC2)N(C)C(=O)[C@H](C2CCCC2)N(C)C(=O)C2(CCCC2)NC(=O)[C@@H]2CCCN2C(=O)[C@H](CCc2ccc(C(F)(F)F)c(Cl)c2)NC(=O)CN(C)C(=O)[C@H](Cc2ccc(C)cc2)N(CC)C(=O)CN(C)C(=O)CN(C)C1=O` [PP0031] ([NMeA]I[Sar][Sar][NEtPhe(4-Me)][Sar][hPhe(3-Cl-4-CF3)]P[Ac5c][NMeGly(cPent)][NMeD]-Morpholide; lactam N-11) was tested, and the Kd [1] was 0.18 nM, the “NRAS/KRAS (ratio of KD value for NRAS to KD value for KRAS)” value [2] was “B (a compound having 3 or more and less than 10 is denoted as B)” and the “HRAS/KRAS (ratio of KD value for HRAS to KD value for KRAS)” value [3] was “C (A compound having a KD ratio of 0.1 or more and less than 3 is denoted as C)”.

In the case of `CC[C@H](C)[C@@H]1NC(=O)[C@H](CC(F)(F)F)N(C)C(=O)C[C@@H](C(=O)N2CCOCC2)N(C)C(=O)[C@H](C2CCCC2)N(C)C(=O)C2(CCCC2)NC(=O)[C@@H]2CCCN2C(=O)[C@H](CCc2ccc(C(F)(F)F)c(Cl)c2)NC(=O)CN(C)C(=O)[C@H](Cc2ccc(C)cc2)N(CC)C(=O)CN(C)C(=O)CN(C)C1=O` [PP0032] ([NMeAbu(4,4,4-F3)]I[Sar][Sar][NEtPhe(4-Me)][Sar][hPhe(3-Cl-4-CF3)]P[Ac5c][NMeGly(cPent)][NMeD]-Morpholide; lactam N-11), the Kd [1] is reported as 0.37 nM, the “NRAS/KRAS (ratio of KD value for NRAS to KD value for KRAS)” value [2] is reported as “C (A compound having a KD ratio of 0.1 or more and less than 3 is denoted as C)” and the “HRAS/KRAS (ratio of KD value for HRAS to KD value for KRAS)” value [3] is reported as “C (A compound having a KD ratio of 0.1 or more and less than 3 is denoted as C)”.

In the case of `CC[C@H](C)[C@@H]1NC(=O)[C@H](CC(C)C)N(C)C(=O)C[C@@H](C(=O)N2CCOCC2)N(C)C(=O)[C@H](C2CCCC2)N(C)C(=O)C2(CCCC2)NC(=O)[C@@H]2CCCN2C(=O)[C@H](CCc2ccc(C(F)(F)F)c(Cl)c2)NC(=O)CN(C)C(=O)[C@H](Cc2ccc(C)cc2)N(C)C(=O)[C@H](CO)N(C)C(=O)CN(C)C1=O` [PP0037] ([NMeL]I[Sar][NMeS][NMePhe(4-Me)][Sar][hPhe(3-Cl-4-CF3)]P[Ac5c][NMeGly(cPent)][NMeD]-Morpholide; lactam N-11), the Kd [1] is reported as 7.6 nM, the “NRAS/KRAS (ratio of KD value for NRAS to KD value for KRAS)” value [2] is reported as “C (A compound having a KD ratio of 0.1 or more and less than 3 is denoted as C)” and the “HRAS/KRAS (ratio of KD value for HRAS to KD value for KRAS)” value [3] is reported as “C (A compound having a KD ratio of 0.1 or more and less than 3 is denoted as C)”.
